Assay results: patent JP2005314435A, “循環器疾患治療剤および健康食品” (Individual, priority 2000, dated 2002)

Assays:
Format in all cases: in vivo
[1] = system: spontaneously stroke-developing rat [自然発症脳卒中ラット (SHR−SP)]; assay: Example 3: blood pressure lowering and body weight in SHR-SP given 0.003% L-NAME drinking water
[2] = system: SHR-SP rat, neurological symptoms [SHR−SPに対する神経症状]; assay: Example 2: delay of neurological symptom onset and life prolongation in SHR-SP (1% saline drinking water); details: for mean number of days from onset to death / mean number of days to death / mean number of days to onset of neurological symptoms: 1.8% in feed
[3] = system: spontaneously stroke-developing rat [自然発症脳卒中ラット(SHR-SP)]; assay: Example 2: blood pressure lowering, body weight and mortality in stroke-prone rats (1% saline drinking water); details: for blood pressure (systolic) / body weight: 1.8% in feed
[4] = system: SHR-SP rat, neurological symptoms [SHR−SPに対する神経症状]; assay: Example 3: delay of neurological symptom onset, life prolongation and brain microvessel protection in SHR-SP given 0.003% L-NAME
[5] = system: spontaneously hypertensive rat [自然発症高血圧ラット(SHR)]; assay: Example 1: blood pressure lowering and body weight in spontaneously hypertensive rats (1% saline drinking water)
[6] = system: WKY rat (Wistar-Kyoto rat) [WKYラット(Wistar-Kyoto rat)]; assay: Example 1: blood pressure and body weight in normotensive WKY rats (1% saline drinking water)
[7] = FA 2.7% in feed, pre-value (week 0)
[8] = FA 2.7% in feed, 8-week observation
[9] = FA 2.7% in feed, n = 6, 8-week observation
[10] = FA 1.8% in feed until week 6, then normal feed, week 9
[11] = FA 1.8% in feed until week 6, then normal feed, week 12
[12] = FA 1.8% in feed, pre-value (week 0)
[13] = FA 2.7% in feed until week 6, then normal feed, week 9
[14] = FA 2.7% in feed until week 6, then normal feed, week 12
[15] = WKY, FA 2.7% in feed until week 6, then normal feed, week 9
[16] = WKY, FA 2.7% in feed until week 6, then normal feed, week 12
[17] = WKY, FA 2.7% in feed, pre-value (week 0)
[18] = FA-Arg 1.8% in feed, pre-value (week 0)
[19] = n = 7, listed as FA−Arg塩, L−アルギニン塩
[20] = FA-Arg 1.8% in feed, 8-week observation
[21] = FA-Arg 1.8% in feed, n = 7, 8-week observation

COc1cc(C=CC(=O)O)ccc1O [FA, フェルラ酸]
blood pressure (systolic) [1, 7]: 115.0 ±4.7 mmHg
body weight [1, 7]: 107.7 ± 1.9 g
blood pressure (systolic) ([1]; FA 2.7% in feed, week 2): 141.4 ±3.1 mmHg
body weight ([1]; FA 2.7% in feed, week 2): 137.6 ± 3.0 g
blood pressure (systolic) ([1]; FA 2.7% in feed, week 4): 185.1± 1.9 mmHg
body weight ([1]; FA 2.7% in feed, week 4): 175.9 ± 3.2 g
blood pressure (systolic) ([1]; FA 2.7% in feed, week 6): 203.1±7.5 mmHg
body weight ([1]; FA 2.7% in feed, week 6): 195.1 ± 5.0 g
blood pressure (systolic) ([1]; FA 2.7% in feed, week 8): 207.8± 6.0 mmHg
body weight ([1]; FA 2.7% in feed, week 8): 213.5 ± 7.4 g
mean number of days from onset to death ([2]; n = 7): 10.4 ± 0.6 days
mean number of days to death ([2]; n = 7): 70.0 ± 1.8 days
mean number of days to onset of neurological symptoms ([2]; n = 7): 59.6 ± 1.4 days
delay of neurological symptom onset and life prolongation (in words) ([2]; versus control without test substance): 明らかな神経症状発症遅延効果および延命効果を示している
blood pressure (systolic) ([3]; pre-value (week 0)): 124.5 ±5.5 mmHg
body weight ([3]; pre-value (week 0)): 94.0 ± 2.3 g
blood pressure (systolic) ([3]; week 2): 150.2 ±6.1 mmHg
body weight ([3]; week 2): 148.8 ± 3.3 g
blood pressure (systolic) ([3]; week 4): 203.4 ±4.6 mmHg
body weight ([3]; week 4): 198.2 ± 3.1 g
body weight ([3]; week 7): 233.0 ± 3.8 g
blood pressure lowering effect (in words) ([3]; from week 2 on, versus control without test substance): 有意な降圧効果が観察された
preventive effect (in words) ([4]; 8-week observation, versus control): 明らかな予防効果が見られた
animals that died / animals used [4, 8]: 0/6
animals with onset of neurological symptoms / animals used [4, 8]: 0/6
mean number of days to death [4, 9]: 56.0 ± 0.0 days
mean number of days to onset of neurological symptoms [4, 9]: 56.0 ± 0.0 days
mean number of days to onset of neurological symptoms or death (in words) ([4]; from start of administration, versus control): 有意に延長していた
protection of brain microvessels (in words) ([4]; order FA group, FA-Arg salt group): FA投与群、FA−Arg塩投与群の順で脳内微細血管が保護されたことが示唆された
deaths ([5]; FA 1.8% group, at week 9-10 (after change to normal feed at week 6)): 1 cases
blood pressure (systolic) [5, 10]: 225.6 ±6.1 mmHg
body weight [5, 10]: 293.8 ± 5.0 g
blood pressure (systolic) [5, 11]: 233.6 ± 6.0 mmHg
body weight [5, 11]: 307.0 ± 6.7 g
blood pressure (systolic) [5, 12]: 128.5 ±2.2 mmHg
body weight [5, 12]: 135.5 ± 1.8 g
blood pressure (systolic) ([5]; FA 1.8% in feed, week 6): 201.1 ±6.2 mmHg
body weight ([5]; FA 1.8% in feed, week 6): 264.8 ± 4.1 g
blood pressure (systolic) [5, 13]: 211.8 ±3.1 mmHg
body weight [5, 13]: 292.1 ± 3.0 g
blood pressure (systolic) [5, 14]: 217.7 ± 4.7 mmHg
body weight [5, 14]: 309.4 ± 3.1 g
blood pressure (systolic) [5, 7]: 135.4 ±2.7 mmHg
body weight [5, 7]: 136.8 ± 1.5 g
blood pressure (systolic) ([5]; FA 2.7% in feed, week 6): 192.0 ±2.5 mmHg
body weight ([5]; FA 2.7% in feed, week 6): 239.5 ± 3.4 g
suppression of body weight (in words) ([5]; FA groups): 体重の有意な抑制がみられた
blood pressure lowering effect (in words) ([5]; during 6 weeks of administration): 用量依存的に有意な降圧作用を示した
blood pressure (systolic) [6, 15]: 124.0 ±3.7 mmHg
body weight [6, 15]: 310.1 ± 7.3 g
blood pressure (systolic) [6, 16]: 135.5 ± 2.8 mmHg
body weight [6, 16]: 349.2 ± 12.0 g
blood pressure (systolic) [6, 17]: 99.5 ±3.1 mmHg
body weight [6, 17]: 122.2 ± 2.8 g
blood pressure (systolic) ([6]; WKY, FA 2.7% in feed, week 6): 128.4 ±4.7 mmHg
body weight ([6]; WKY, FA 2.7% in feed, week 6): 263.2 ± 4.3 g
suppression of body weight (in words) ([6]; WKY, FA group): 体重の有意な抑制がみられた
blood pressure lowering effect (in words) ([6]; normotensive WKY rats): 降圧作用を示さず

COc1cc(C=CC(=O)O)ccc1O [FA−Arg, フェルラ酸−L−アルギニン塩]
deaths ([1]; FA-Arg 1.8% in feed, at week 7): 1 cases
deaths ([1]; FA-Arg 1.8% in feed, at week 8): 1 cases
blood pressure (systolic) [1, 18]: 116.0 ±4.3 mmHg
body weight [1, 18]: 102.7 ± 2.9 g
blood pressure (systolic) ([1]; FA-Arg 1.8% in feed, week 2): 146.4 ±5.0 mmHg
body weight ([1]; FA-Arg 1.8% in feed, week 2): 179.9 ± 4.0 g
blood pressure (systolic) ([1]; FA-Arg 1.8% in feed, week 4): 183.6± 5.7 mmHg
body weight ([1]; FA-Arg 1.8% in feed, week 4): 225.7 ± 3.0 g
blood pressure (systolic) ([1]; FA-Arg 1.8% in feed, week 6): 205.7±7.7 mmHg
body weight ([1]; FA-Arg 1.8% in feed, week 6): 244.3 ± 4.2 g
blood pressure (systolic) ([1]; FA-Arg 1.8% in feed, week 8): 221.8± 7.1 mmHg
body weight ([1]; FA-Arg 1.8% in feed, week 8): 263.6 ± 6.9 g
mean number of days from onset to death [2, 19]: 8.2 ± 2.2 days
mean number of days to death [2, 19]: 73.9 ± 4.7 days
mean number of days to onset of neurological symptoms [2, 19]: 65.4 ± 4.8 days
blood pressure (systolic) ([3]; pre-value (week 0), L−アルギニン塩): 122.8 ±4.6 mmHg
body weight ([3]; pre-value (week 0), L−アルギニン塩): 103.2 ± 3.2 g
blood pressure (systolic) ([3]; week 2, L−アルギニン塩): 155.2 ±4.6 mmHg
body weight ([3]; week 2, L−アルギニン塩): 156.7 ± 3.8 g
blood pressure (systolic) ([3]; week 4, L−アルギニン塩): 196.1 ± 5.8 mmHg
body weight ([3]; week 4, L−アルギニン塩): 204.4 ± 4.5 g
body weight ([3]; week 7, L−アルギニン塩): 226.4 ± 10.9 g
animals that died / animals used [4, 20]: 2/7
animals with onset of neurological symptoms / animals used [4, 20]: 2/7
mean number of days to death [4, 21]: 55.0 ± 1.0 days
mean number of days to onset of neurological symptoms [4, 21]: 54.9 ± 1.1 days
